Data taken from US11173144B2, “Adrenergic receptor modulating compounds and methods of using the same” (The Board of Trustees of the Leland Stanford Junior …, priority 2016, dated 2021).

What was measured:
[1] = biological target: α1A adrenergic receptor (Homo sapiens (Human), UniProt P35348); test: CNS target panel screen: α1A adrenergic receptor; type: binding
Description: (§1) From a drug development perspective, characterizing the off-target effects of lead compounds is an important issue, as interactions with off-target molecules may lead to undesirable side effects. Thus we screened xamoterol (S) and the key compound compound 43 against a panel of CNS relevant targets, including G-protein coupled receptor and transporters. […].

[2] = system: LPS-induced TNF-α response; test: In vivo LPS assay; parameters: species or system C57BI/6J mice; settings: mice, 3 mg/kg 15 min prior to LPS, 90 min post-LPS
Protocol: Amplification is performed using StepOnePlus (Applied Biosystems).
Following injections, mice are single-housed. At 90 min post-LPS/saline, mice are deeply anesthetized with isoflurane and blood is collected from the right ventricle via cardiac puncture (23 g needle) into lithium heparin-containing vials (BD microtainer plasma tubes). Plasma is separated by centrifugation (11,000 rpm for 3 minutes) within 30 min of collection and stored at −80° C. until analysis. The concentration of TNF-α in the collected plasma is measured by ELISA (Invitrogen, KMC3012) according to the manufacturer's instruction.

[3] = system: panel of CNS relevant targets, including G-protein coupled receptor and transporters; test: Screen against a panel of CNS relevant targets (off-target affinity); type: binding
Description: as §1

[4] = biological target: ADRB1 (Homo sapiens (Human), UniProt P08588); test: β-arrestin assay (PathHunter enzyme fragment complementation, CHO-K1-ADRB1 cells); type: cell-based; settings: Table 4
Protocol: Pharmacological activity of compounds in the β-arrestin pathway mediated by ADRB1 are evaluated using an enzyme fragment complementation method with a β-galactosidase functional reporter. An engineered CHO-K1-ADRB1 PathHunter cell line (DiscoveRx) is used in the assay. In this cell line, enzyme acceptor (β-galactosidase fragment) is fused to β-arrestin and enzyme donor (β-galactosidase fragment) is fused to the ADRB1. Thus, activation of the ADRB1 stimulates binding of β-arrestin to the ProLink-tagged ADRB1 and forces complementation of the two enzyme fragments, resulting in the formation of an active β-galactosidase enzyme. Briefly, CHO-K1-ADRB1 PathHunter cell lines are plated in a total volume of 20 μL cell plating reagent (DiscoveRx, 93-0563R0A) at a density of 2,500 cells/well into 384 well microplates and incubated overnight at 37° C. in 5% CO2. […] Chemiluminescent signal is then read with a PerkinElmer Envision™ instrument. The results are expressed as a percent of the maximum efficacy achieved with isoproterenol.
Effects of compounds on β-arrestin signaling pathways are determined using CHO cells stably expressing human β1-adrenergic receptors or human β2-adrenergic receptors with PathHunter® β-Arrestin GPCR assay system (DiscoveRx). In this system, adrenergic receptor is fused in frame with the small enzyme fragment ProLink™ and co-expressed in cell stably expressing at fusion protein of β-arrestin and the larger, N-terminal deletion mutant of β-galactosidase enzyme. Activation of the adrenergic receptor stimulates binding of β-arrestin to the ProLink-tagged receptor and forces complementation of the two enzyme fragments, resulting in the formation of an active β-gal enzyme. This interaction leads to an increase in enzyme activity that can be measured using chemiluminescent detection reagents. The effects of compounds on β-arrestin signaling pathways are determined 90 minutes after incubating the cells with the test compounds.

Sequence of ADRB1 (P08588 whole entry, the tested form may be a part): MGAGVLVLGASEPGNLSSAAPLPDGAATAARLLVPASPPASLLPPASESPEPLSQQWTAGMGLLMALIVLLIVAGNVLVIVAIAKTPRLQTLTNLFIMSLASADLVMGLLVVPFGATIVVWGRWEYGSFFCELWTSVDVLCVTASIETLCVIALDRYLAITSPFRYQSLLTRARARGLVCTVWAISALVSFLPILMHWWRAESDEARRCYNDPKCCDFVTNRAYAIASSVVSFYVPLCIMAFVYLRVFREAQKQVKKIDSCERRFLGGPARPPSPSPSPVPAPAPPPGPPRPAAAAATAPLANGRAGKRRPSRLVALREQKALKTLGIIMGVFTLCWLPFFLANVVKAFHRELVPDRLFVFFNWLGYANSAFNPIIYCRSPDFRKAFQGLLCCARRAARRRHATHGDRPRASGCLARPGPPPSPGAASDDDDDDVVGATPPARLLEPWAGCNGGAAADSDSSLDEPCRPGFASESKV
Sequence of α1A adrenergic receptor (P35348 whole entry): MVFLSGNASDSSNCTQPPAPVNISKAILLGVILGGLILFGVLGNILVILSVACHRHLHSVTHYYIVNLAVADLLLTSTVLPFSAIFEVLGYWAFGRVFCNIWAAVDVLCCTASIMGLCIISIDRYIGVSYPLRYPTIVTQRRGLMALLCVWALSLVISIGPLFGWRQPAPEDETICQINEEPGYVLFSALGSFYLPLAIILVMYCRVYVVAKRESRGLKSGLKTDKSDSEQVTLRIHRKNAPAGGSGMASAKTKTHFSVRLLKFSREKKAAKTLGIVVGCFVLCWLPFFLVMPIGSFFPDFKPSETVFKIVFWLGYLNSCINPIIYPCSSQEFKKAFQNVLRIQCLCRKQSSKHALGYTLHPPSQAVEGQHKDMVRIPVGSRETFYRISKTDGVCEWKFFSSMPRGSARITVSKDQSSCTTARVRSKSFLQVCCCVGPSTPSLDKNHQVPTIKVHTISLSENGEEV

For `COc1ccccc1OCCNC[C@H](O)COc1ccc(O)cc1` [Compound 43], the “affinity for α1A adrenergic receptor” value [1] was “significant affinity”, the “LPS-induced TNF-α response in periphery (plasma)” value [2] was “markedly inhibited” and the “LPS-induced inflammatory response in the brain (TNF-α, IL-1β, IL-6 gene expression)” value [2] was “attenuated”. For the same compound, the “affinity for opioid, histamine, and muscarinic acetylcholine receptors” value [3] was “nominal affinity”, the “β-arrestin pathway % Iso max” value ([4]; percent efficacy compared to the maximum response achieved with isoproterenol) was 18.3% and the EC50 ([4]; read-out: β-arrestin pathway ADRB1 EC50) was 10 to 100 nM.
